Source: patent US7960562B2, “Propane-1,3-dione derivative or salt thereof” (Astellas Pharma Inc., priority 2005, dated 2011)
Like-named read-outs stand apart in the source and are kept apart here.

Target: T1, human GnRH receptor (Homo sapiens, UniProt P30968)
T1 sequence (P30968 1-328): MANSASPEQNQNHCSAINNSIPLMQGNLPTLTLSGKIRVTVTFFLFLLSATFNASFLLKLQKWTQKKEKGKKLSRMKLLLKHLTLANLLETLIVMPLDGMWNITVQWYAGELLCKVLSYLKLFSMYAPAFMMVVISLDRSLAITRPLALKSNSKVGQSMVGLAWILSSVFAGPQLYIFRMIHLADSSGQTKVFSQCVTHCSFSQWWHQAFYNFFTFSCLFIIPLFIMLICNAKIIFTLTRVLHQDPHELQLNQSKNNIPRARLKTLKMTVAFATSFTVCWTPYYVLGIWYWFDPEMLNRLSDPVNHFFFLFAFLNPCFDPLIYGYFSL
Assay: Test for GnRH receptor antagonistic effect (inhibition of 125I-D-Trp6-LHRH binding)
Method: The GnRH receptor antagonistic effects of the compounds of the present invention were evaluated by calculating their concentration that inhibit 50% of the binding of ^125I-D-Trp^6-LHRH to a human GnRH receptor (IC50), according to the description in Patent Reference 1, page 56 “1. Test for GNRH Receptor Antagonistic Effect”.
Accordingly, for confirming the usefulness of “group of —SO2—R^3”, the activities of the compounds of the present invention was compared with those of the comparative compounds having —CO—R^3 group.

[1] = Table 1, read-out: IC50 (concentration that inhibits 50% of the binding of 125I-D-Trp6-LHRH to a human GnRH receptor)
[2] = Table 2, read-out: IC50 (GnRH receptor binding), SO2-R3 compounds versus comparative CO-R3 compounds

| SMILES | IC50 [1] | IC50 [2] |
| --- | --- | --- |
| CC(C)(O)C(=N)NS(=O)(=O)c1cc(C(=O)C(C(=O)c2cccc(F)c2)=C2Nc3ccccc3N2)ccc1F [Example 662] | 0.24 nM | – |
| NC(N)=NS(=O)(=O)c1cccc(C(=O)C(C(=O)c2cc(F)cc(F)c2)=C2Nc3ccccc3N2)c1 [Example 89] | – | 0.022 nM |
| CC(=N)NS(=O)(=O)c1cccc(C(=O)C(C(=O)c2cc(F)cc(F)c2)=C2Nc3ccccc3N2)c1 [Example 73] | – | 0.053 nM |
| CC(=O)NC(N)=NS(=O)(=O)c1cccc(C(=O)C(C(=O)c2cc(F)cc(F)c2)=C2Nc3ccccc3N2)c1 [Example 74] | – | 0.56 nM |
| O=C(C(C(=O)c1cccc(S(=O)(=O)NCCO)c1)=C1Nc2ccccc2N1)c1cc(F)cc(F)c1 [Example 77] | – | 0.066 nM |
| O=C(NCCO)c1cccc(C(=O)C(C(=O)c2cc(F)cc(F)c2)=C2Nc3ccccc3N2)c1 [compound 4, reference compound] | – | 9.6 nM |
| CC(=N)NS(=O)(=O)c1cccc(C(=O)C(C(=O)c2cccc(F)c2)=C2Nc3ccccc3N2)c1 [Example 245] | 0.058 nM | – |
| CC(=O)NC(N)=NC(=O)c1cccc(C(=O)C(C(=O)c2cc(F)cc(F)c2)=C2Nc3ccccc3N2)c1 [Comparative Example 3, reference compound] | – | 16 nM |
| CC(=N)NC(=O)c1cccc(C(=O)C(C(=O)c2cc(F)cc(F)c2)=C2Nc3ccccc3N2)c1 [compound 1, reference compound] | – | 7.1 nM |
| CC(C)(O)C(=N)NS(=O)(=O)c1cccc(C(=O)C(C(=O)c2cccc(F)c2)=C2Nc3ccccc3N2)c1 [Example 211] | 0.094 nM | – |
| C[C@@H](O)C(=N)NS(=O)(=O)c1cc(C(=O)C(C(=O)c2cccc(F)c2)=C2Nc3ccccc3N2)ccc1F [Example 696, (2R)-N-({5-[2-(1,3-dihydro-2H-benzimidazol-2-ylidene)-3-(3-fluorophenyl)-3-oxopropanoyl]-2-fluorophenyl}sulfonyl)-2-hydroxypropanimidamide] | 0.18 nM | – |
